Our source for the melting point values is a melting point compilation (Tetko et al.; mined from patent text by program, amines drawn as free bases though some values may be those of a salt).

Usually melting point stands for the temperature, or range, at which the solid turns liquid. In turn, `CCOC(=O)N1CCC(NS(=O)(=O)c2ccc3ccccc3c2)CC1` showed a melting point of 128 °C. The compound `Nc1ccccc1NC(=O)c1ccc(C(=O)Nc2cccc(Nc3nc(-c4cccnc4)cs3)c2)cn1` showed a melting point of 148 to 150 °C. Under `Clc1ccc(C2(CBr)OCC(COc3ccc(Cl)c4ccccc34)O2)c(Cl)c1` (configuration not stated) stands 123 °C; under `Cc1ccc(-c2ccc3c(c2)C=C(C(=O)Nc2ccc(CCl)cc2)CC3)cc1`, 178 to 179 °C; under `Cc1nc(N)c2ncn(CCCCNC(=O)N3CCOCC3)c2c1C`, 164 to 167 °C.

The compound `Cc1cc(C(=O)C(C#N)C(=O)Nc2ccc(F)cc2)c(C)n1C` (configuration not stated) yielded a melting point of 171 to 172 °C.

In turn, `O=P(O)(O)C(O)(Cc1c(Cl)cccc1Cl)P(=O)(O)O` yielded a melting point of 226 to 228 °C. Take `O=C(O)c1ncn2c1[C@@H]1CCN1C(=O)c1ccccc1-2`: the melting point turned out to be 232 °C. As for `COc1nc2c(s1)C(=O)N(C(C)(C)C)C2=O`, the melting point lay in the range of 63 to 66 °C. Regarding `Cc1cc(-c2ccc(Cl)cc2)nc(-c2cccc(-c3cccc(S(N)(=O)=O)c3)c2)n1`, the melting point was 221 °C.

Take `COc1ccc(N2C(=O)C(C)(C)N(c3ccc(Cc4ccccc4)cc3)C2=S)cc1`: the melting point is 162 °C.

Compound `CC(=O)N[C@H]1CC[C@H](ON2C(=O)c3ccccc3C2=O)CC1` displayed a melting point of 210 to 213 °C. As to `O=c1cc(Sc2ccc(O)cc2)oc2cc(O)cc(O)c12`, the melting point fell in the range of 249 to 251 °C. Next, `COc1cc(C(=O)O)ccc1Oc1ccccc1N`: 192 to 194 °C. With `CC1CNc2cc(C3=NNC(=O)CC3)ccc2O1` (configuration not stated), the melting point was in the range of 294 to 296 °C. Next, `COC(=O)c1ccc(CBr)c(OCC(=O)c2ccc(OC)c(C34CC5CC(CC(C5)C3)C4)c2)c1`: 165 °C; `O=C(OCc1cccc(Cl)c1)c1ncn2c1[C@@H]1CCCN1C(=O)c1c(Cl)cccc1-2`: 114 to 116 °C; `O=C(O)c1cnc(N2CCN(CC3CC3)C2=O)s1`: 250 to 252 °C. For `CC[C@H](C)[C@H](NC[C@@H](N)CS)C(=O)N[C@@H](Cc1ccccc1)C(=O)N[C@@H](CCSC)C(=O)OCc1ccccc1`, the melting point fell in the range of 71 to 78 °C. Compound `Cc1c2c(cc(=O)n1CC(C)O)CCC(c1ccccn1)C2` (configuration not stated) gave a melting point of 300 °C. In turn, `CN1C(=O)N(C[C@H](C(=O)NOCc2ccccc2)[C@@H](CC2CCCC2)C(=O)N2CCCCC2)C(=O)C1(C)C` had a melting point of 138 to 140 °C.

In the case of `Cc1nc2c(C#N)ncn2c(Cl)c1-c1c(F)cc(F)cc1F`, the melting point amounted to 183 °C. Under `CCCCNC(=O)N1CC(Oc2cccc(C(F)(F)F)c2)C1` stands 108 to 109 °C.

For `CS(=O)(=O)c1ccc(/C=C/c2nc3ccccc3n2-c2ccccn2)cc1`, the melting point was 152 to 154 °C.

The compound `CN(Cc1cc(C(F)(F)F)cc(C(F)(F)F)c1)C(=O)c1cnc2ccc(Cl)cc2c1-c1ccccc1` gave a melting point of 105 to 106 °C. As to `CCN(CC)c1ccc2cc(C(=O)OCCO)c(=O)oc2c1`, the melting point was in the range of 106 to 108 °C.

In turn, `CC1(CNC(=O)OC(C)(C)C)CN(C(c2ccccc2)c2ccccc2)C1` showed a melting point of 106 to 107 °C. The compound `CC(c1oc2ccccc2c(=O)c1-c1cccc(F)c1)n1nc(-c2ccc3[nH]ccc3c2)c2c(N)ncnc21` (configuration not stated) gave a melting point of 197 to 199 °C. In the case of `CCOP(=O)(/C=C\c1cnc(-c2ccccc2)nc1OCc1ccc(OCc2nc(-c3ccco3)oc2C)c(OC)c1)OCC`, the melting point was in the range of 103 to 104 °C. The compound `CCOC(=O)c1cn(C2COC2)c2c(OC)c(F)c(F)cc2c1=O` displayed a melting point of 195 to 198 °C. Consider `FC(F)(F)c1ccc(-c2ccc(N3CCCN(c4ccc(-c5ccc(C(F)(F)F)cc5)cn4)CC3)nc2)cc1`, for which the melting point lay in the range of 236 to 238 °C. In turn, `COc1ccc(C2=CC(=Nc3c(C)cc(C)cc3C)N(C)CN2C(C)=O)cc1OC` registered a melting point of 173 to 175 °C. Regarding `c1ccc(COc2ccc(CN(c3ccccc3)c3ccccc3)cc2)cc1`, the melting point lay in the range of 104 to 109 °C. Compound `O=C(Cc1ccc(F)cc1)c1ccc(F)cc1` had a melting point of 91 to 93 °C.

As for `C#CCOC(=O)c1ccc(O)cc1`, the melting point was in the range of 82 to 84 °C. `CS(=O)(=O)c1ccc(-n2nccc2-c2ccc(Br)cc2)cc1F`: the melting point lay within 155 to 156 °C. Consider `CCOC(=O)CSc1nc(Cl)c(C)c(NCc2ccc(Cl)cc2)n1`, for which the melting point lay in the range of 114 to 117 °C. In the case of `COc1cccc(-n2c(=O)c3c(c4cccnc42)OC(COC(C)=O)C3)c1` (configuration not stated), the melting point was in the range of 183 to 184 °C. `COC(=O)CCCc1cc2nc(Cl)ccc2n1S(=O)(=O)c1ccccc1` registered a melting point of 85 to 90 °C. Next, `COn1c(C)nn(-c2cc(F)c(C#N)cc2Cl)c1=O`: 102 °C; `CCC1C(=O)N2C(C(=O)OCc3ccc([N+](=O)[O-])cc3)=C(CCNC(C)=O)CC12` (configuration not stated): 174 to 176 °C; `O=C(CCC(=O)N1CCC(c2ccc(Cl)cc2)CC1)c1ccc2c(c1)CCN(C1CCCCC1)CC2`: 128 to 130 °C. Under `CS(=O)(=O)c1ccc(Cl)c2[nH]ccc12` stands 160 to 162 °C. For the compound `C=CC[C@H](C(N)=O)[C@@H](CC(C)C)C(=O)NC1N=C(c2cccc(OC)c2)c2ccccc2N(C)C1=O` (some centres not stated), the melting point was in the range of 225 to 230 °C. Under `CCN1CCCC1CNC(=O)c1cc(Cl)c(O)cc1OC` (configuration not stated) stands 185 to 186 °C. Next, `O=C(O)Cc1cccc(Oc2cccc(-c3nnc(Nc4ccc(Cl)c(Cl)c4)s3)c2)c1`: 183 to 184 °C.

Turning to `N#Cc1c(=O)[nH]c2cc(Cl)c(Cl)cc2[n+]1[O-]`, the melting point fell in the range of 294 to 296 °C. In turn, `COC(=O)CN1C(=O)c2ccccc2Nc2ccc(OCc3cccc4ccccc34)cc21` had a melting point of 85 to 92 °C. Under `CCN(Cc1ccccc1OCc1ccccc1)c1ccc(C(=O)O)cc1` stands 165 °C; under `CCOC(=O)C1=C(C)N(C(C)=O)C(c2csc(C)n2)=NC1c1cccc(F)c1` (configuration not stated), 127 to 130 °C; under `CCNC(=O)c1c([Si](C)(C)C)csc1Cl`, 46 to 48 °C. `CN1CCN(C(=O)c2cc3ccnc(Cl)c3[nH]2)CC1`: the melting point fell in the range of 230 to 232 °C. Under `CCCNc1nc(N)nc2c1ncn2C1CC(F)C(CO)O1` (configuration not stated) stands 153 °C. Compound `CS(=O)(=O)c1ccc(-c2n[nH]c(C(F)(F)F)c2-c2ccc(F)cc2)cc1` registered a melting point of 219 to 220 °C. For `Cc1ccc(Cn2ncnc2C(C)NS(=O)(=O)c2ccc(Cl)s2)cc1` (configuration not stated), the melting point lay in the range of 116 to 117 °C.

For the compound `NC(=O)c1ncn2c1CN=C(c1ccccc1Cl)c1cc(Cl)ccc1-2`, the melting point was above 300 °C. `COc1ccc2c3c(c(=O)oc2c1)CNCC3`: the melting point was 171 to 180 °C. Consider `CCOC(=O)c1cn2c(ccc3cc(OC)ccc32)n1`, for which the melting point fell in the range of 119 to 121 °C. Turning to `CCOC(=O)c1cnc(Nc2cccc(C(F)(F)F)c2)[nH]c1=O`, the melting point fell in the range of 229 to 230 °C.

The compound `CCOc1ccc(C2=NN(c3ccc(C(=O)N4CCSCC4)cc3)C(=O)[C@H]3CC=CC[C@@H]23)cc1OCC` (relative stereo) registered a melting point of 104 to 106 °C. In turn, `c1ccc(Nn2ccc3ccccc32)nc1` returned a melting point of 109 to 110 °C. In the case of `O=C(O)Cc1ccc(-c2cn3cccnc3n2)cc1`, the melting point is 264 to 265 °C.
